Legend:
Experiment in all cases: Antibiotics sensitivity, agar dilution MIC
Format in all cases: cell-based
[1] = tested on: Bifidobacterium adolescentis KCTC3352; conditions: strain KCTC3352; Table 5
Description: (§1) Antibiotics sensitivity test was performed for comparative analysis of phenotypes of the lactobacillus strain separated in Example 1 and standard strains purchased from KCTC. In order to find out the minimum inhibitory concentrations (MICs) of 18 kinds of antibiotics (ampicillin, mupirocin, amoxicillin/clavulanic acid, oxacillin, cefonicid, cefazolin, ceftazidime, cefotaxime, ceftriaxone, tigecyclin, streptomycin, vancomycin, teicoplanin, daptomycin, linezolid, clindamycin, quinupristin/dalfopristin and tobramycin), agar dilution method was performed according to the Clinical and Laboratory Standards Institute (CLSI, 2003), and the results were listed in Tables 4 and 5.

[2] = tested on: Bifidobacterium adolescentis SPM0212; conditions: strain SPM0212; Table 5
Description: as §1

[3] = tested on: Bifidobacterium adolescentis SPM0214; conditions: strain SPM0214; Table 5
Description: as §1

[4] = tested on: Bifidobacterium adolescentis SPM0308; conditions: strain SPM0308; Table 5
Description: as §1

[5] = tested on: Bifidobacterium adolescentis SPM1005; conditions: strain SPM1005; Table 5
Description: as §1

[6] = tested on: Bifidobacterium adolescentis SPM1307-A; conditions: strain SPM1307-A; Table 5
Description: as §1

[7] = tested on: Bifidobacterium adolescentis SPM1601; conditions: strain SPM1601; Table 5
Description: as §1

[8] = tested on: Bifidobacterium adolescentis SPM1604; conditions: strain SPM1604; Table 5
Description: as §1

[9] = tested on: Bifidobacterium adolescentis SPM1605; conditions: strain SPM1605; Table 5
Description: as §1

[10] = tested on: Bifidobacterium adolescentis SPM1606; conditions: strain SPM1606; Table 5
Description: as §1

[11] = tested on: Bifidobacterium adolescentis SPM1608; conditions: strain SPM1608; Table 5
Description: as §1

[12] = tested on: Bifidobacterium longum KCTC3128; conditions: strain KCTC3128; Table 5
Description: as §1

[13] = tested on: Bifidobacterium longum SPM1205; conditions: strain SPM1205; Table 5
Description: as §1

[14] = tested on: Bifidobacterium longum SPM1206; conditions: strain SPM1206; Table 5
Description: as §1

[15] = tested on: Bifidobacterium pseudocatenulatum KCTC3223; conditions: strain KCTC3223; Table 5
Description: as §1

[16] = tested on: Bifidobacterium pseudocatenulatum SPM1204; conditions: strain SPM1204; Table 5
Description: as §1

[17] = tested on: Bifidobacterium pseudocatenulatum SPM1309; conditions: strain SPM1309; Table 5
Description: as §1

Minimum inhibitory concentrations (MICs) [1] | Minimum inhibitory concentrations (MICs) [2] | Minimum inhibitory concentrations (MICs) [3] | Minimum inhibitory concentrations (MICs) [4] | Minimum inhibitory concentrations (MICs) [5] | Minimum inhibitory concentrations (MICs) [6] | Minimum inhibitory concentrations (MICs) [7] | Minimum inhibitory concentrations (MICs) [8] | Minimum inhibitory concentrations (MICs) [9] | Minimum inhibitory concentrations (MICs) [10] | Minimum inhibitory concentrations (MICs) [11] | Minimum inhibitory concentrations (MICs) [12] | Minimum inhibitory concentrations (MICs) [13] | Minimum inhibitory concentrations (MICs) [14] | Minimum inhibitory concentrations (MICs) [15] | Minimum inhibitory concentrations (MICs) [16] | Minimum inhibitory concentrations (MICs) [17] | Compound
0.5 μl/Ml | ≦0.06 μl/Ml | 0.25 μl/Ml | ≦0.06 μl/Ml | 0.5 μl/Ml | 0.25 μl/Ml | 0.25 μl/Ml | ≦0.06 μl/Ml | 0.5 μl/Ml | 0.12 μl/Ml | ≦0.06 μl/Ml | 0.5 μl/Ml | ≦0.06 μl/Ml | 0.12 μl/Ml | 0.5 μl/Ml | 0.5 μl/Ml | 0.25 μl/Ml | CN(C)c1cc(NC(=O)CNC(C)(C)C)c(O)c2c1C[C@H]1C[C@H]3[C@H](N(C)C)C(O)=C(C(N)=O)C(=O)[C@@]3(O)C(O)=C1C2=O [TIG, tigecyclin]
>128 μl/Ml | >128 μl/Ml | 32 μl/Ml | 32 μl/Ml | 32 μl/Ml | 64 μl/Ml | 32 μl/Ml | 16 μl/Ml | 16 μl/Ml | 16 μl/Ml | 128 μl/Ml | >128 μl/Ml | 4 μl/Ml | 32 μl/Ml | >128 μl/Ml | 128 μl/Ml | >128 μl/Ml | NC[C@H]1O[C@H](O[C@H]2[C@H](O)[C@@H](O[C@H]3O[C@H](CO)[C@@H](O)[C@H](N)[C@H]3O)[C@H](N)C[C@@H]2N)[C@H](N)C[C@@H]1O [TOB, tobramycin]
128 μl/Ml | 128 μl/Ml | 32 μl/Ml | 32 μl/Ml | 32 μl/Ml | 64 μl/Ml | 64 μl/Ml | ≦0.06 μl/Ml | 32 μl/Ml | 0.25 μl/Ml | 32 μl/Ml | 128 μl/Ml | 8 μl/Ml | 8 μl/Ml | 128 μl/Ml | 128 μl/Ml | 32 μl/Ml | [H]/N=C(/N)N[C@H]1[C@H](O)[C@@H](O)[C@H](O[C@@H]2O[C@@H](C)[C@](O)(C=O)[C@H]2O[C@@H]2O[C@@H](CO)[C@H](O)[C@@H](O)[C@@H]2NC)[C@@H](N/C(N)=N\[H])[C@@H]1O [STR, streptomycin]
